Measured values as given in PubChem BioAssay (NCI).
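All cell lines were grown in 96-well plates and treated with compound for 48 hours. The concentration for full growth arrest is given as TGI.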

How the values were obtained:
Assay in all cases: NCI-60 cell line screen, 48 h
[1] = test system: NCI-H460 lung
[2] = test system: HCT-116 colon
[3] = test system: 786-0 renal
[4] = test system: HCT-15 colon
[5] = test system: HCC-2998 colon
[6] = test system: HOP-62 NSCLC
[7] = test system: SF-295 CNS
[8] = test system: SK-MEL-2 melanoma
[9] = test system: MOLT-4 leukemia
[10] = test system: MDA-MB-231 breast
[11] = test system: A498 renal
[12] = test system: MDA-N
[13] = test system: SF-268 CNS
[14] = test system: OVCAR-5 ovarian
[15] = test system: A549 NSCLC
[16] = test system: SW-620 colon
[17] = test system: NCI/ADR-RES ovarian
[18] = test system: SNB-75 CNS

O=C1CSC(c2ccccc2[N+](=O)[O-])N1c1ccc(-c2ccc(-n3c(-c4ccccc4)nc4ccccc4c3=O)cc2)cc1 (configuration not stated)
TGI [1]: > 100 µM | TGI [2]: > 100 µM | TGI [3]: > 100 µM | TGI [4]: > 100 µM | TGI [5]: > 100 µM | TGI [6]: > 100 µM | TGI [7]: > 100 µM | TGI [8]: > 100 µM | TGI [9]: > 100 µM | TGI [10]: > 100 µM | TGI [11]: > 100 µM | TGI [12]: > 100 µM | TGI [13]: > 100 µM | TGI [14]: > 100 µM | TGI [15]: > 100 µM | TGI [16]: > 100 µM | TGI [17]: > 100 µM | TGI [18]: 61.3 µM

CCOC(=O)C(Cc1ccc(OC(=O)c2ccc(OC)cc2)cc1)NC(=O)C(F)(F)F (configuration not stated)
TGI [1]: > 100 µM | TGI [2]: > 100 µM | TGI [3]: > 100 µM | TGI [4]: > 100 µM | TGI [5]: > 100 µM | TGI [6]: > 100 µM | TGI [7]: > 100 µM | TGI [8]: > 100 µM | TGI [9]: > 100 µM | TGI [10]: > 100 µM | TGI [11]: > 100 µM | TGI [12]: > 100 µM | TGI [13]: > 100 µM | TGI [14]: > 100 µM | TGI [15]: > 100 µM | TGI [16]: > 100 µM | TGI [17]: > 100 µM | TGI [18]: 46.5 µM

CC(=O)OCC1OC(Nn2c(=O)[nH]c3ccccc3c2=O)C(OC(C)=O)C(OC(C)=O)C1OC(C)=O (configuration not stated)
TGI [1]: > 100 µM | TGI [2]: > 100 µM | TGI [3]: > 100 µM | TGI [4]: > 100 µM | TGI [5]: 53 µM | TGI [6]: > 100 µM | TGI [7]: > 100 µM | TGI [8]: > 100 µM | TGI [9]: > 100 µM | TGI [10]: > 100 µM | TGI [11]: > 100 µM | TGI [12]: > 100 µM | TGI [13]: > 100 µM | TGI [14]: > 100 µM | TGI [15]: > 100 µM | TGI [16]: > 100 µM | TGI [17]: > 100 µM | TGI [18]: > 100 µM

CC1(C)OC(=O)N(c2ccccc2)C12C=Cc1cccc([N+](=O)[O-])c1O2 (configuration not stated)
TGI [1]: > 100 µM | TGI [2]: > 100 µM | TGI [3]: > 100 µM | TGI [4]: > 100 µM | TGI [5]: > 100 µM | TGI [6]: > 100 µM | TGI [7]: > 100 µM | TGI [8]: > 100 µM | TGI [9]: 74.1 µM | TGI [10]: > 100 µM | TGI [11]: > 100 µM | TGI [12]: > 100 µM | TGI [13]: > 100 µM | TGI [14]: > 100 µM | TGI [15]: > 100 µM | TGI [16]: > 100 µM | TGI [17]: > 100 µM | TGI [18]: > 100 µM

COc1ccc(C2SCC(=O)N2NC(=O)c2ccc(NC(C)=O)cc2)c(OC)c1 (configuration not stated)
TGI [1]: > 100 µM | TGI [2]: > 100 µM | TGI [3]: > 100 µM | TGI [4]: > 100 µM | TGI [5]: > 100 µM | TGI [6]: > 100 µM | TGI [7]: > 100 µM | TGI [8]: > 100 µM | TGI [9]: > 100 µM | TGI [10]: > 100 µM | TGI [11]: > 100 µM | TGI [12]: > 100 µM | TGI [13]: > 100 µM | TGI [14]: > 100 µM | TGI [15]: > 100 µM | TGI [16]: > 100 µM | TGI [17]: > 100 µM | TGI [18]: > 100 µM

CC(C)NC(=O)N(Nc1ccccc1)C(C)(C)C
TGI [1]: > 100 µM | TGI [2]: > 100 µM | TGI [3]: > 100 µM | TGI [4]: > 100 µM | TGI [5]: > 100 µM | TGI [6]: > 100 µM | TGI [7]: > 100 µM | TGI [8]: > 100 µM | TGI [9]: > 100 µM | TGI [10]: > 100 µM | TGI [11]: > 100 µM | TGI [12]: > 100 µM | TGI [14]: > 100 µM | TGI [15]: > 100 µM | TGI [16]: > 100 µM | TGI [17]: > 100 µM | TGI [18]: > 100 µM

O=[N+]([O-])C(=C(N1CCOCC1)N1CCOCC1)/C(Cl)=C(\Cl)Br
TGI [1]: > 100 µM | TGI [2]: 30.8 µM | TGI [3]: 58.4 µM | TGI [4]: 28.9 µM | TGI [5]: > 100 µM | TGI [6]: > 100 µM | TGI [7]: > 100 µM | TGI [8]: 44.8 µM | TGI [9]: 33.9 µM | TGI [10]: 31.8 µM | TGI [11]: > 100 µM | TGI [12]: 70.6 µM | TGI [13]: 81.3 µM | TGI [14]: 32.4 µM | TGI [15]: > 100 µM | TGI [16]: 28.8 µM | TGI [17]: 52.9 µM | TGI [18]: 33.2 µM

[N-]=[N+]=NC(c1cn(C2CC(O)C(CO)O2)c(=O)[nH]c1=O)C(Cl)I (configuration not stated)
TGI [1]: > 100 µM | TGI [2]: > 100 µM | TGI [3]: > 100 µM | TGI [4]: > 100 µM | TGI [5]: > 100 µM | TGI [6]: > 100 µM | TGI [7]: > 100 µM | TGI [8]: > 100 µM | TGI [9]: > 100 µM | TGI [10]: > 100 µM | TGI [11]: > 100 µM | TGI [12]: > 100 µM | TGI [13]: > 100 µM | TGI [14]: > 100 µM | TGI [15]: > 100 µM | TGI [16]: > 100 µM | TGI [17]: > 100 µM | TGI [18]: > 100 µM

CN(C)CCn1c(=O)c2ccc(NCCN3CCNCC3)c3c(=O)c4ccccc4n(c1=O)c23
TGI [1]: 12 µM | TGI [2]: 12.8 µM | TGI [3]: 14.1 µM | TGI [4]: 25.3 µM | TGI [5]: 12.8 µM | TGI [6]: 22.8 µM | TGI [7]: 18 µM | TGI [8]: 8.72 µM | TGI [9]: 0.147 µM | TGI [10]: 11.8 µM | TGI [11]: 16.1 µM | TGI [12]: 18.9 µM | TGI [13]: 18.7 µM | TGI [14]: 42.1 µM | TGI [15]: 15.9 µM | TGI [16]: 21.3 µM | TGI [17]: 30 µM | TGI [18]: 10.1 µM

CCOC(=O)C1(C(=O)OCC)OC(C)=NC1(C(=O)OC)C(=O)OC
TGI [1]: > 100 µM | TGI [2]: > 100 µM | TGI [3]: > 100 µM | TGI [4]: > 100 µM | TGI [5]: > 100 µM | TGI [6]: > 100 µM | TGI [7]: > 100 µM | TGI [8]: > 100 µM | TGI [9]: > 100 µM | TGI [10]: > 100 µM | TGI [11]: > 100 µM | TGI [12]: > 100 µM | TGI [13]: > 100 µM | TGI [14]: > 100 µM | TGI [15]: > 100 µM | TGI [16]: > 100 µM | TGI [17]: > 100 µM | TGI [18]: 98.1 µM

COc1cc(NCCC2CCCCN2)c2ncccc2c1 (configuration not stated)
TGI [1]: > 100 µM | TGI [2]: > 67.6 µM | TGI [3]: > 100 µM | TGI [4]: > 100 µM | TGI [5]: 30.7 µM | TGI [6]: > 100 µM | TGI [7]: > 100 µM | TGI [8]: > 91.1 µM | TGI [9]: > 68.6 µM | TGI [10]: > 92.1 µM | TGI [11]: > 89.6 µM | TGI [12]: > 100 µM | TGI [13]: > 100 µM | TGI [14]: > 100 µM | TGI [15]: > 100 µM | TGI [16]: > 100 µM | TGI [17]: > 100 µM | TGI [18]: > 100 µM

NCCCC[C@H](N)C(=O)Nc1ccc(-c2nc3ccccc3s2)cc1
TGI [1]: 34.9 µM | TGI [2]: 33 µM | TGI [3]: 32.9 µM | TGI [4]: 33.7 µM | TGI [5]: 81.5 µM | TGI [6]: 62 µM | TGI [7]: 31 µM | TGI [8]: > 100 µM | TGI [9]: 31.2 µM | TGI [10]: 37.6 µM | TGI [11]: 72.9 µM | TGI [12]: 29 µM | TGI [13]: 55.6 µM | TGI [14]: 33.2 µM | TGI [15]: > 100 µM | TGI [16]: 30.6 µM | TGI [17]: 59.7 µM | TGI [18]: 35.2 µM

CCOc1ccc(N/C(=C(/C(Cl)=C(/Cl)N2CCCCC2)[N+](=O)[O-])n2nnc3ccccc32)cc1
TGI [1]: 70.4 µM | TGI [2]: 37.7 µM | TGI [3]: 39.8 µM | TGI [4]: 29 µM | TGI [5]: 59.2 µM | TGI [6]: 42.6 µM | TGI [7]: 49 µM | TGI [8]: 33.3 µM | TGI [9]: > 100 µM | TGI [10]: 44.5 µM | TGI [11]: 34.9 µM | TGI [12]: 52.4 µM | TGI [13]: 37.4 µM | TGI [14]: 32.5 µM | TGI [15]: 62.9 µM | TGI [17]: 43.5 µM | TGI [18]: 50.6 µM
